Test results from paper PMC3203342 (Nature, 2011).

Tests used:
Or59b/Orco in ab2A OSN = target: T1, Or59b/Orco in ab2A OSN (Drosophila melanogaster, UniProt Q9W1P8); test: single sensillum recording, dose-response; format: cell-based; settings: native ab2A neuron; vapour; inhibitor of spontaneous activity
T1 sequence (Q9W1P8 1-398): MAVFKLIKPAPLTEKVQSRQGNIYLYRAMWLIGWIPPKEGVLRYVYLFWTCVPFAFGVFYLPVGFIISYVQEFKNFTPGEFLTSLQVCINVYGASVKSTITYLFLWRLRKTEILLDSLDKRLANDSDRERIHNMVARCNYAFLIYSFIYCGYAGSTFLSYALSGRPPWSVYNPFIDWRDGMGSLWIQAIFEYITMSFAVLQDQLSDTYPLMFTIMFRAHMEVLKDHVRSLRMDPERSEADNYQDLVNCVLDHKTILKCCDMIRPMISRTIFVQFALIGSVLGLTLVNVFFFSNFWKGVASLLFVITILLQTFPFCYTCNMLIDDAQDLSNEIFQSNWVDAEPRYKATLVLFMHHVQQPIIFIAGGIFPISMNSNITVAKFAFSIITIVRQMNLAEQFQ
T1 sequence (Q9VNB5 1-486 partner): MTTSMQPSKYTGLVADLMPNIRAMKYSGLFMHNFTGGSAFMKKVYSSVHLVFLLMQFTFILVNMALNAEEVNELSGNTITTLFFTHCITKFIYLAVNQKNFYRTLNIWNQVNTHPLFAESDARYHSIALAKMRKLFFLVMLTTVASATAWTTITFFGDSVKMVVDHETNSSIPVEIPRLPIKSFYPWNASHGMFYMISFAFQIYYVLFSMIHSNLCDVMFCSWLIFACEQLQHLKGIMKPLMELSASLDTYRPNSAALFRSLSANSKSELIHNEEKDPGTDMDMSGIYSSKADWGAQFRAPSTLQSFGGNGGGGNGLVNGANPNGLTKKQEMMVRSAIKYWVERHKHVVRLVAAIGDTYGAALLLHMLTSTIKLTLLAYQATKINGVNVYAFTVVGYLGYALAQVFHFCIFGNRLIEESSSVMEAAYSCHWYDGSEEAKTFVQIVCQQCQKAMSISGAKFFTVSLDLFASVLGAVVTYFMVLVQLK

Or85a/Orco in ab2B OSN = target: T2, Or85a/Orco in ab2B OSN (Drosophila melanogaster, UniProt Q9VHS4); test: single sensillum recording, dose-response; format: cell-based; settings: native ab2B neuron; vapour; agonist
T2 sequence (Q9VHS4 1-397): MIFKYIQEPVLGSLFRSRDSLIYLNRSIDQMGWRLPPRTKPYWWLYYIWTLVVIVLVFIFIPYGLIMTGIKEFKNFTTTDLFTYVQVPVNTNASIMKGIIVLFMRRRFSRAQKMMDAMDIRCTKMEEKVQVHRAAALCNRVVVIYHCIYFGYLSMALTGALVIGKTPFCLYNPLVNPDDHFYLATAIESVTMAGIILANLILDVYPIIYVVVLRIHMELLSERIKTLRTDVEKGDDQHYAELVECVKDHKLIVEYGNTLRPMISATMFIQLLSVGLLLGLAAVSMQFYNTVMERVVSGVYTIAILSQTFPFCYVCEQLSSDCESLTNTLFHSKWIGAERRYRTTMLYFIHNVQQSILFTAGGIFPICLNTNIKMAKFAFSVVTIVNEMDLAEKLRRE
T2 sequence (Q9VNB5 1-486 partner): T1 sequence (Q9VNB5 1-486 partner)

Row | SMILES | Δ spikes/s (Or59b/Orco in ab2A OSN) | Δ spikes/s (Or85a/Orco in ab2B OSN)
1 | CCCCCCCCO [1-octanol] | DEET interfered with inhibition of Or59b/Orco by 1-octen-3-ol, 1-octanol, and linalool | 
2 | C=CC(O)CCCCC (stereo not drawn) [1-octen-3-ol] |  | activating the ab2B neuron expressing Or85a/Orco (Fig. 1e)
3 | C=C[C@](C)(O)CCC=C(C)C [linalool] | DEET interfered with inhibition of Or59b/Orco by 1-octen-3-ol, 1-octanol, and linalool | 
